In patent US10499642B2, “Isoxazoline-substituted benzamides and analogues as insecticides” (SYNGENTA PARTICIPATIONS AG, priority 2015, dated 2019):

Experiments:
Format in all cases: in vivo
Diabrotica Balteata = experiment: Diabrotica balteata (corn root worm) maize sprout test; conditions: 96 h, read-out: effect in at least one of the two categories (mortality or growth inhibition)
In short: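 Scoring covered both mortality and growth inhibition relative to untreated controls, 4 days post-infestation. Test solutions at 200 ppm, diluted in water from 10′000 ppm DMSO stocks, were sprayed onto agar-held maize sprouts, which after drying received 6 to 10 L2 larvae each well.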

Thrips tabaci = Thrips tabaci (onion thrips) sunflower leaf disc test; conditions: foliar, 144 h
Description: Thrips tabaci (Onion Thrips):
Sunflower leaf discs were placed on agar in 24-well microtiter plates and sprayed with aqueous test solutions prepared from 10′000 ppm DMSO stock solutions. After drying the leaf discs were infested with a thrips population of mixed ages. The samples were assessed for mortality 6 days after infestation.

Myzus persicae = Myzus persicae (green peach aphid) sunflower leaf disc test; conditions: foliar, 144 h
Description: Myzus persicae (Green Peach Aphid):
Sunflower leaf discs were placed on agar in a 24-well microtiter plate and sprayed with test solutions at an application rate of 200 ppm. After drying, the leaf discs were infested with an aphid population of mixed ages. After an incubation period of 6 days after treatment, samples were checked for mortality. The following compounds gave at least 80% mortality of Myzus persicae: […]

Plutella xylostella = Plutella xylostella (diamond back moth) artificial diet test; conditions: 120 h, read-out: effect in at least one of the two categories (mortality or growth inhibition)
In short: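 At a 200 ppm rate, test solutions were applied to artificial diet and allowed to dry before second-instar larvae were added. Five days later, larval mortality and growth inhibition were rated against untreated samples.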

Tetranychus urticae = Tetranychus urticae (two-spotted spider mite) bean leaf disc test; conditions: foliar, 192 h
Description: Tetranychus urticae (Two-Spotted Spider Mite):
Bean leaf discs on agar in 24-well microtiter plates were sprayed with aqueous test solutions prepared from 10′000 ppm DMSO stock solutions. After drying the leaf discs were infested with a mite population of mixed ages. The samples were assessed for mortality on mixed population (mobile stages) 8 days after infestation.

Spodoptera littoralis = Spodoptera littoralis (Egyptian cotton leaf worm) cotton leaf disc test; conditions: foliar, 72 h, read-out: control (at least one of mortality, anti-feedant effect, and growth inhibition)
In short: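 Five first-instar larvae per disc were placed on dried, sprayed cotton leaf discs held on agar. Test solutions were aqueous, made from 10′000 ppm DMSO stocks. At day 3, control was counted when mortality, feeding deterrence or growth inhibition exceeded the untreated discs.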

Cc1cc(C2=NO[C@@](c3cc(Cl)c(F)c(Cl)c3)(C(F)(F)F)C2)ccc1C(=O)NC1CC(C(F)(F)F)=NO1 (stereo partly drawn) [Compound A005, 4-[(5S)-5-(3,5-dichloro-4-fluoro-phenyl)-5-(trifluoromethyl)-4H-isoxazol-3-yl]-2-methyl-N-[3-(trifluoromethyl)-4,5-dihydroisoxazol-5-yl]benzamide]
≥ 80%: percent effect (mortality or growth inhibition) at 200 ppm (Diabrotica Balteata) | mortality at 200 ppm (Thrips tabaci) | mortality at 200 ppm (Myzus persicae) | percent effect (mortality or growth inhibition) at 200 ppm (Plutella xylostella) | mortality at 200 ppm (Tetranychus urticae) | percent control (mortality, anti-feedant effect or growth inhibition) at 200 ppm (Spodoptera littoralis)

CC(=O)C1=NOC(N(C=O)C(=O)c2ccc(C3=NO[C@@](c4cc(Cl)c(F)c(Cl)c4)(C(F)(F)F)C3)cc2C)C1 (stereo partly drawn) [Compound A014, N-(3-acetyl-4,5-dihydroisoxazol-5-yl)-4-[(5S)-5-(3,5-dichloro-4-fluoro-phenyl)-5-(trifluoromethyl)-4H-isoxazol-3-yl]-N-formyl-2-methyl-benzamide]
≥ 80%: percent effect (mortality or growth inhibition) at 200 ppm (Diabrotica Balteata) | mortality at 200 ppm (Thrips tabaci) | mortality at 200 ppm (Myzus persicae) | percent effect (mortality or growth inhibition) at 200 ppm (Plutella xylostella) | mortality at 200 ppm (Tetranychus urticae) | percent control (mortality, anti-feedant effect or growth inhibition) at 200 ppm (Spodoptera littoralis)

Cc1cc(C2=NO[C@@](c3cc(Cl)cc(Cl)c3)(C(F)(F)F)C2)ccc1C(=O)NC1CC(Br)=NO1 (stereo partly drawn) [Compound A055]
≥ 80%: percent effect (mortality or growth inhibition) at 200 ppm (Diabrotica Balteata) | mortality at 200 ppm (Thrips tabaci) | mortality at 200 ppm (Myzus persicae) | percent effect (mortality or growth inhibition) at 200 ppm (Plutella xylostella) | mortality at 200 ppm (Tetranychus urticae) | percent control (mortality, anti-feedant effect or growth inhibition) at 200 ppm (Spodoptera littoralis)

Cc1cc(C2=NO[C@@](c3cc(Cl)c(Cl)c(Cl)c3)(C(F)(F)F)C2)ccc1C(=O)NC1CC(OCC2(C)COC2)=NO1 (stereo partly drawn) [Compound A123, 2-methyl-N-[3-[(3-methyloxetan-3-yl)methoxy]-4,5-dihydroisoxazol-5-yl]-4-[(5S)-5-(3,4,5-trichlorophenyl)-5-(trifluoromethyl)-4H-isoxazol-3-yl]benzamide]
≥ 80%: percent effect (mortality or growth inhibition) at 200 ppm (Diabrotica Balteata) | mortality at 200 ppm (Thrips tabaci) | mortality at 200 ppm (Myzus persicae) | percent effect (mortality or growth inhibition) at 200 ppm (Plutella xylostella) | mortality at 200 ppm (Tetranychus urticae) | percent control (mortality, anti-feedant effect or growth inhibition) at 200 ppm (Spodoptera littoralis)

Cc1cc(C2=NO[C@@](c3cc(Cl)cc(Cl)c3)(C(F)(F)F)C2)ccc1C(=O)NC1CC(C(F)(F)F)=NO1 (stereo partly drawn) [Compound A136, 4-[(5S)-5-(3,5-dichlorophenyl)-5-(trifluoromethyl)-4H-isoxazol-3-yl]-2-methyl-N-[3-(trifluoromethyl)-4,5-dihydroisoxazol-5-yl]benzamide]
≥ 80%: percent effect (mortality or growth inhibition) at 200 ppm (Diabrotica Balteata) | mortality at 200 ppm (Thrips tabaci) | mortality at 200 ppm (Myzus persicae) | percent effect (mortality or growth inhibition) at 200 ppm (Plutella xylostella) | mortality at 200 ppm (Tetranychus urticae) | percent control (mortality, anti-feedant effect or growth inhibition) at 200 ppm (Spodoptera littoralis)

Cc1cc(C2=NO[C@@](c3cc(Cl)c(F)c(Cl)c3)(C(F)(F)F)C2)ccc1C(=O)NC1CC(OC/C=C/C(F)(F)F)=NO1 (stereo partly drawn) [Compound A084, 4-[(5S)-5-(3,5-dichloro-4-fluoro-phenyl)-5-(trifluoromethyl)-4H-isoxazol-3-yl]-2-methyl-N-[3-[(E)-4,4,4-trifluorobut-2-enoxy]-4,5-dihydroisoxazol-5-yl]benzamide]
≥ 80%: percent effect (mortality or growth inhibition) at 200 ppm (Diabrotica Balteata) | mortality at 200 ppm (Thrips tabaci) | mortality at 200 ppm (Myzus persicae) | percent effect (mortality or growth inhibition) at 200 ppm (Plutella xylostella) | mortality at 200 ppm (Tetranychus urticae) | percent control (mortality, anti-feedant effect or growth inhibition) at 200 ppm (Spodoptera littoralis)

Cc1cc(C2=NO[C@@](c3cc(Cl)c(F)c(Cl)c3)(C(F)(F)F)C2)ccc1C(=O)NC1CC(Br)=NO1 (stereo partly drawn) [Compound A001, N-(3-bromo-4,5-dihydroisoxazol-5-yl)-4-[(5S)-5-(3,5-dichloro-4-fluoro-phenyl)-5-(trifluoromethyl)-4H-isoxazol-3-yl]-2-methyl-benzamide]
≥ 80%: percent effect (mortality or growth inhibition) at 200 ppm (Diabrotica Balteata) | mortality at 200 ppm (Thrips tabaci) | mortality at 200 ppm (Myzus persicae) | percent effect (mortality or growth inhibition) at 200 ppm (Plutella xylostella) | mortality at 200 ppm (Tetranychus urticae) | percent control (mortality, anti-feedant effect or growth inhibition) at 200 ppm (Spodoptera littoralis)

CCOC1=NOC(NC(=O)c2ccc(C3=NO[C@@](c4cc(Cl)c(Cl)c(Cl)c4)(C(F)(F)F)C3)cc2C)C1 (stereo partly drawn) [Compound A059]
≥ 80%: percent effect (mortality or growth inhibition) at 200 ppm (Diabrotica Balteata) | mortality at 200 ppm (Thrips tabaci) | mortality at 200 ppm (Myzus persicae) | percent effect (mortality or growth inhibition) at 200 ppm (Plutella xylostella) | mortality at 200 ppm (Tetranychus urticae) | percent control (mortality, anti-feedant effect or growth inhibition) at 200 ppm (Spodoptera littoralis)

Cc1cc(C2=NO[C@@](c3cc(Cl)c(F)c(Cl)c3)(C(F)(F)F)C2)ccc1C(=O)N(C=O)C1CC(Cl)=NO1 (stereo partly drawn) [Compound A011, N-(3-chloro-4,5-dihydroisoxazol-5-yl)-4-[(5S)-5-(3,5-dichloro-4-fluoro-phenyl)-5-(trifluoromethyl)-4H-isoxazol-3-yl]-N-formyl-2-methyl-benzamide]
≥ 80%: percent effect (mortality or growth inhibition) at 200 ppm (Diabrotica Balteata) | mortality at 200 ppm (Thrips tabaci) | mortality at 200 ppm (Myzus persicae) | percent effect (mortality or growth inhibition) at 200 ppm (Plutella xylostella) | mortality at 200 ppm (Tetranychus urticae) | percent control (mortality, anti-feedant effect or growth inhibition) at 200 ppm (Spodoptera littoralis)

CC1=NOC(NC(=O)c2ccc(C3=NO[C@@](c4cc(Cl)c(F)c(Cl)c4)(C(F)(F)F)C3)cc2Cl)C1 (stereo partly drawn) [Compound A038, 2-chloro-4-[(5S)-5-(3,5-dichloro-4-fluoro-phenyl)-5-(trifluoromethyl)-4H-isoxazol-3-yl]-N-(3-methyl-4,5-dihydroisoxazol-5-yl)benzamide]
≥ 80%: percent effect (mortality or growth inhibition) at 200 ppm (Diabrotica Balteata) | mortality at 200 ppm (Thrips tabaci) | mortality at 200 ppm (Myzus persicae) | percent effect (mortality or growth inhibition) at 200 ppm (Plutella xylostella) | mortality at 200 ppm (Tetranychus urticae) | percent control (mortality, anti-feedant effect or growth inhibition) at 200 ppm (Spodoptera littoralis)

CCOCCOC1=NOC(NC(=O)c2ccc(C3=NO[C@@](c4cc(Cl)c(Cl)c(Cl)c4)(C(F)(F)F)C3)cc2C)C1 (stereo partly drawn) [Compound A107, N-[3-(2-ethoxyethoxy)-4,5-dihydroisoxazol-5-yl]-2-methyl-4-[(5S)-5-(3,4,5-trichlorophenyl)-5-(trifluoromethyl)-4H-isoxazol-3-yl]benzamide]
≥ 80%: percent effect (mortality or growth inhibition) at 200 ppm (Diabrotica Balteata) | mortality at 200 ppm (Thrips tabaci) | mortality at 200 ppm (Myzus persicae) | percent effect (mortality or growth inhibition) at 200 ppm (Plutella xylostella) | mortality at 200 ppm (Tetranychus urticae) | percent control (mortality, anti-feedant effect or growth inhibition) at 200 ppm (Spodoptera littoralis)

CC1=NOC(NC(=O)c2ccc(C3=NO[C@@](c4cc(Cl)c(Cl)c(Cl)c4)(C(F)(F)F)C3)cc2Br)C1 (stereo partly drawn) [Compound A037, 2-bromo-N-(3-methyl-4,5-dihydroisoxazol-5-yl)-4-[(5S)-5-(3,4,5-trichlorophenyl)-5-(trifluoromethyl)-4H-isoxazol-3-yl]benzamide]
≥ 80%: percent effect (mortality or growth inhibition) at 200 ppm (Diabrotica Balteata) | mortality at 200 ppm (Thrips tabaci) | mortality at 200 ppm (Myzus persicae) | percent effect (mortality or growth inhibition) at 200 ppm (Plutella xylostella) | mortality at 200 ppm (Tetranychus urticae) | percent control (mortality, anti-feedant effect or growth inhibition) at 200 ppm (Spodoptera littoralis)

COC1=NOC(NC(=O)c2ccc(C3=NO[C@@](c4cc(Cl)cc(C(F)(F)F)c4)(C(F)(F)F)C3)cc2C)C1 (stereo partly drawn) [Compound A042]
≥ 80%: percent effect (mortality or growth inhibition) at 200 ppm (Diabrotica Balteata) | mortality at 200 ppm (Thrips tabaci) | mortality at 200 ppm (Myzus persicae) | percent effect (mortality or growth inhibition) at 200 ppm (Plutella xylostella) | mortality at 200 ppm (Tetranychus urticae) | percent control (mortality, anti-feedant effect or growth inhibition) at 200 ppm (Spodoptera littoralis)

COC1=NOC(NC(=O)c2ccc(C3=NOC(c4cc(Cl)cc(Cl)c4)(C(F)(F)F)C3)cc2C)C1 (stereo not drawn) [Compound A126]
≥ 80%: percent effect (mortality or growth inhibition) at 200 ppm (Diabrotica Balteata) | mortality at 200 ppm (Thrips tabaci) | mortality at 200 ppm (Myzus persicae) | percent effect (mortality or growth inhibition) at 200 ppm (Plutella xylostella) | mortality at 200 ppm (Tetranychus urticae) | percent control (mortality, anti-feedant effect or growth inhibition) at 200 ppm (Spodoptera littoralis)
